Assay results as given in patent publication US11612604B2, “Methods of treating cancer with PLK4 inhibitors” (LUDWIG INSTITUTE FOR CANCER RESEARCH LTD, priority 2017, dated 2023).
pIC50: −log10 of the molar value.

Each compound was assayed against T1, PLK4 (Homo sapiens, UniProt O00444) (assay: Activity (IC50) of the Table 1 compounds as PLK4 inhibitors). Conditions: Table 1, IC50 class.
T1 sequence (O00444 1-970): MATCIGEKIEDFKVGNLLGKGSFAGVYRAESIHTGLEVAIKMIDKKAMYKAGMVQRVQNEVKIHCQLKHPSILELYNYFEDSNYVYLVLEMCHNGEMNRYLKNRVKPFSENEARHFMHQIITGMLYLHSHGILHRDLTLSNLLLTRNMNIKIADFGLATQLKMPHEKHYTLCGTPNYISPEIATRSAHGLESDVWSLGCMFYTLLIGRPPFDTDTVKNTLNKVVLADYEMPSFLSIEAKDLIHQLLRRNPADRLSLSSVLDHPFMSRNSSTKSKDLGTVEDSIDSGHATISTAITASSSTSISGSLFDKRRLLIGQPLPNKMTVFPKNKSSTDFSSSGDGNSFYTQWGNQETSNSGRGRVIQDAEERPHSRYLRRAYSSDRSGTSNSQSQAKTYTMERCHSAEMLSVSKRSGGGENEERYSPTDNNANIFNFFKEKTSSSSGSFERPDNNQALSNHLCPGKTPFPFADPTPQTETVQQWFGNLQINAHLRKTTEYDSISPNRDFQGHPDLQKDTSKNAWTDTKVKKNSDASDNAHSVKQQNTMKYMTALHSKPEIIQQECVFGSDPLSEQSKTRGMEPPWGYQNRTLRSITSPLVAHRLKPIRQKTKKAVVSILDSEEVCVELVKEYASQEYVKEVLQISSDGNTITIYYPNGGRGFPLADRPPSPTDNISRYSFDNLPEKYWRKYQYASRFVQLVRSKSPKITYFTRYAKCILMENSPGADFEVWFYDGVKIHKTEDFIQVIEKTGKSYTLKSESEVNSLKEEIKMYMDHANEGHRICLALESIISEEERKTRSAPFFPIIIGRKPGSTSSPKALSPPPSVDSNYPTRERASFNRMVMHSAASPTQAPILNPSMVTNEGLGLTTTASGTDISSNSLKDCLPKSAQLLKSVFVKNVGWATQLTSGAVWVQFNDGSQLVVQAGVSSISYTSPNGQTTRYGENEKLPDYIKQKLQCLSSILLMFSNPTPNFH
Format: biochemical

pIC50, > 7.00:
COc1c(Nc2cc(C)[nH]n2)nc(Sc2ccc(NC(=O)C3CC3)cc2)nc1N1CCOCC1
COc1c(Nc2cc(C)[nH]n2)nc(Sc2ccc(NC(=O)C3CC3)cc2)nc1N1CCNCC1
COCCNc1nc(Sc2ccc(NC(=O)C3CC3)cc2)nc(Nc2cc(C)[nH]n2)c1OC
COC(=O)c1cccc(CS(=O)(=O)c2ccc(Sc3nc(Nc4cc(C)[nH]n4)c(OC)c(N4CCN(CCN(C)C)CC4)n3)cc2)c1
COc1c(Nc2cc(C)[nH]n2)nc(Sc2ccc(S(=O)(=O)Cc3cccc(C(N)=O)c3)cc2)nc1N1CCN(CCN(C)C)CC1
COc1c(Nc2cc(C)[nH]n2)nc(Sc2ccc(S(=O)(=O)Cc3ccccc3)cc2)nc1N1CCN(CCN2CCC2)CC1
COc1c(Nc2cc(C)[nH]n2)nc(Sc2ccc(S(=O)(=O)Cc3ccccc3NC(C)=O)cc2)nc1N1CCN(CCN(C)C)CC1
COc1c(Nc2cc(C)[nH]n2)nc(Sc2ccc(S(=O)(=O)Cc3ccccc3C(F)(F)F)cc2)nc1N1CCN(CCN(C)C)CC1
COc1c(Nc2cc(C)[nH]n2)nc(Sc2ccc(S(=O)(=O)Cc3ccccc3N(C)C)cc2)nc1N1CCN(CCN(C)C)CC1
COc1c(Nc2cc(C)[nH]n2)nc(Sc2ccc(S(=O)(=O)Cc3ccccc3-c3ccccc3)cc2)nc1N1CCN(CCN(C)C)CC1
COc1c(Nc2cc(C)[nH]n2)nc(Sc2ccc(S(=O)(=O)Cc3ccccc3C#N)cc2)nc1N1CCN(CCN(C)C)CC1
COc1c(Nc2cc(C)[nH]n2)nc(Sc2ccc(S(=O)(=O)Cc3cccc(C(=O)N(C)C)c3)cc2)nc1N1CCN(CCN(C)C)CC1
COc1c(Nc2cc(C)[nH]n2)nc(Sc2ccc(S(=O)(=O)Cc3ccccc3C(N)=O)cc2)nc1N1CCN(CCN(C)C)CC1
COc1c(Nc2cc(C)[nH]n2)nc(Sc2ccc(S(=O)(=O)Cc3ccccc3)cc2)nc1N1CCC(CCN2C3CCCC2CC3)CC1
COc1c(Nc2cc(C)[nH]n2)nc(Sc2ccc(S(=O)(=O)Cc3cccc([N+](=O)[O-])c3)cc2)nc1N1CCOC[C@H]1C
COc1c(Nc2cc(C)[nH]n2)nc(Sc2ccc(S(=O)(=O)Cc3ccccc3)cc2)nc1N1CCN(C2CCNCC2)CC1
COc1c(Nc2cc(C)[nH]n2)nc(Sc2ccc(S(=O)(=O)Cc3ccccc3)cc2Cl)nc1N1CCN(CCN(C)C)CC1
COc1c(Nc2cc(C)[nH]n2)nc(Sc2ccc(S(=O)(=O)Cc3cccc([N+](=O)[O-])c3)cc2)nc1N1CCO[C@H](C)C1
COc1c(Nc2cc(C)[nH]n2)nc(Sc2ccc(S(=O)(=O)Cc3cccc([N+](=O)[O-])c3)cc2)nc1N1CCO[C@@H](C)C1
COc1c(Nc2cc(C)[nH]n2)nc(Sc2ccc(S(=O)(=O)Cc3cccc(NC(C)=O)c3)cc2)nc1N1CCN(CCN(C)C)CC1
COc1c(Nc2cc(C)[nH]n2)nc(Sc2ccc(S(=O)(=O)Cc3cccc(N(C)C)c3)cc2)nc1N1CCN(CCN(C)C)CC1
COC(=O)c1ccccc1CS(=O)(=O)c1ccc(Sc2nc(Nc3cc(C)[nH]n3)c(OC)c(N3CCN(CCN(C)C)CC3)n2)cc1
COc1c(Nc2cc(C)[nH]n2)nc(Sc2ccc(S(=O)(=O)Cc3ccccc3C(=O)N(C)C)cc2)nc1N1CCN(CCN(C)C)CC1
COc1c(Nc2cc(C)[nH]n2)nc(Sc2ccc(S(=O)(=O)Cc3cccc(C(=O)O)c3)cc2)nc1N1CCN(CCN(C)C)CC1
COc1c(Nc2cc(C)[nH]n2)nc(Sc2ccc(S(=O)(=O)Cc3ccccc3C(=O)O)cc2)nc1N1CCN(CCN(C)C)CC1
COc1ccc([N+](=O)[O-])cc1CS(=O)(=O)c1ccc(Sc2nc(Nc3cc(C)[nH]n3)c(OC)c(N3CCN(CCN(C)C)CC3)n2)cc1
COc1c(CS(=O)(=O)c2ccc(Sc3nc(Nc4cc(C)[nH]n4)c(OC)c(N4CCN(CCN(C)C)CC4)n3)cc2)cccc1[N+](=O)[O-]
COc1c(Nc2cc(C)[nH]n2)nc(Sc2ccc(S(=O)(=O)Cc3cc([N+](=O)[O-])ccc3F)cc2)nc1N1CCN(CCN(C)C)CC1
COc1c(Nc2cc(C)[nH]n2)nc(Sc2ccc(S(=O)(=O)Cc3cccc([N+](=O)[O-])c3)cc2F)nc1N1CCN(CCN(C)C)CC1
COc1c(Nc2cc(C)[nH]n2)nc(Sc2ccc(S(=O)(=O)Cc3cccc([N+](=O)[O-])c3F)cc2)nc1N1CCCCC1
COc1c(Nc2cc(C)[nH]n2)nc(Sc2ccc(S(=O)(=O)Cc3cc(F)cc([N+](=O)[O-])c3)cc2)nc1N1CCN(CCN(C)C)CC1
COc1c(Nc2cc(C)[nH]n2)nc(Sc2ccc(S(=O)(=O)Cc3cccc([N+](=O)[O-])c3Cl)cc2)nc1N1CCN(CCN(C)C)CC1
COc1c(Nc2cc(C)[nH]n2)nc(Sc2ccc(S(=O)(=O)Cc3cccc([N+](=O)[O-])c3F)cc2F)nc1N1CCN(CCN(C)C)CC1
COc1c(Nc2cc(C)[nH]n2)nc(Sc2ccc(S(=O)(=O)Cc3cccc([N+](=O)[O-])c3)cc2F)nc1N1CCOCC1
COc1c(Nc2cc(C)[nH]n2)nc(Sc2ccc(S(=O)(=O)Cc3cccc([N+](=O)[O-])c3)cc2F)nc1N1CCOC[C@@H]1C
COc1c(Nc2cc(C)[nH]n2)nc(Sc2ccc(S(=O)(=O)Cc3cccc([N+](=O)[O-])c3C#N)cc2)nc1N1CCN(CCN(C)C)CC1
COc1c(Nc2cc(C)[nH]n2)nc(Sc2ccc(S(=O)(=O)Cc3cccc([N+](=O)[O-])c3F)cc2)nc1N1CCC(O)CC1
COc1c(Nc2cc(C)[nH]n2)nc(Sc2ccc(S(=O)(=O)Cc3cccc([N+](=O)[O-])c3O)cc2)nc1N1CCN(CCN(C)C)CC1
COc1c(Nc2cc(C)[nH]n2)nc(Sc2ccc(S(=O)(=O)Cc3cccc([N+](=O)[O-])c3)cc2)nc1N1C2CCC1COC2
COc1c(Nc2cc(C)[nH]n2)nc(Sc2ccc(S(C)(=O)=O)cc2F)nc1N1CCC(CCN(C)C)CC1
COc1c(Nc2cc(C)[nH]n2)nc(Sc2ccc(S(C)(=O)=O)cc2F)nc1N1CCN(CCN(C)C)CC1
COc1c(Nc2cc(C)[nH]n2)nc(Sc2ccc(S(C)(=O)=O)cc2Cl)nc1N1CCN(CCN(C)C)CC1
COc1c(Nc2cc(C)[nH]n2)nc(Sc2ccc(S(C)(=O)=O)cc2Cl)nc1N1CCC(CCN(C)C)CC1
CCS(=O)(=O)c1ccc(Sc2nc(Nc3cc(C)[nH]n3)c(OC)c(N3CCOCC3)n2)c(Cl)c1
COc1c(Nc2cc(C)[nH]n2)nc(Sc2ccc(S(=O)(=O)Cc3cccc([N+](=O)[O-])c3F)cc2F)nc1N1CCOC[C@H]1C
COc1c(Cc2cc(C)[nH]n2)nc(Sc2ccc(S(=O)(=O)Cc3cccc([N+](=O)[O-])c3)cc2F)nc1N1CCOC[C@H]1C
CCS(=O)(=O)c1ccc(Sc2nc(Nc3cc(C)[nH]n3)c(OC)c(N3CCN(CCN(C)C)CC3)n2)c(Cl)c1
CCS(=O)(=O)c1ccc(Sc2nc(Nc3cc(C)[nH]n3)c(OC)c(N3CCN(C)CC3)n2)c(Cl)c1
CCS(=O)(=O)c1ccc(Sc2nc(Nc3cc(C)[nH]n3)c(OC)c(N3CCN(CCN(C)C)CC3)n2)c(F)c1
CCS(=O)(=O)c1ccc(Sc2nc(Nc3cc(C)[nH]n3)c(OC)c(N3CCC(CCN(C)C)CC3)n2)c(F)c1
CCS(=O)(=O)c1ccc(Sc2nc(Cc3cc(C)[nH]n3)c(OC)c(N3CCOC[C@@H]3C)n2)c(Cl)c1
COc1c(Cc2cc(C)[nH]n2)nc(Sc2ccc(S(C)(=O)=O)cc2F)nc1N1CCOC[C@@H]1C
COc1c(Nc2cc(C)[nH]n2)nc(Sc2ccc(S(=O)(=O)Cc3cccc(F)c3F)cc2F)nc1N1CCCCC1
COc1c(Nc2cc(C)[nH]n2)nc(Sc2ccc(S(=O)(=O)Cc3cccc(F)c3F)cc2F)nc1N1CCOCC1
COc1c(Nc2cc(C)[nH]n2)nc(Sc2ccc(S(=O)(=O)Cc3cccc(F)c3F)cc2F)nc1N1CCN(CCN(C)C)CC1
COc1c(Cc2cc(C)[nH]n2)nc(Sc2ccc(S(=O)(=O)Cc3cccc(F)c3F)cc2F)nc1N1CCOC[C@@H]1C
COc1c(Nc2cc(C)[nH]n2)nc(Sc2ccc(S(=O)(=O)Cc3c(F)ccc(F)c3F)cc2F)nc1N1CCN(CCN(C)C)CC1
COc1c(Nc2cc(C)[nH]n2)nc(Sc2ccc(S(=O)(=O)Cc3cccc([N+](=O)[O-])c3F)cc2F)nc1N1CCOC[C@@H]1C
COc1c(Nc2cc(C)[nH]n2)nc(Sc2ccc(S(=O)(=O)Cc3cccc([N+](=O)[O-])c3)cc2)nc1N1CCOC[C@@H]1CO
COc1c(Nc2cc(C)[nH]n2)nc(Sc2ccc(S(=O)(=O)Cc3cccc(Cl)c3F)cc2F)nc1N1CCOCC1
COc1c(Nc2cc(C)[nH]n2)nc(Sc2ccc(S(=O)(=O)Cc3cccc(Br)c3F)cc2F)nc1N1CCOCC1
